Experiments:
CYP3A4 = CYP3A4 (Homo sapiens, UniProt P08684); test: CYP3A4 inhibition according to Bapiro et al; type: in vitro ADME
Protocol: The IC50 values tested according to Bapiro et al; Drug Metab. Dispos. 29, 30-35 (2001) were generally greater than 15 μM.

human NK3 receptor = biological target: T1, human NK3 receptor (Homo sapiens, UniProt P29371); test: FLIPR assay, inhibition of human NK3 receptor activation (intracellular Ca2+); type: cell-based; conditions: CHO cells with human NK3 receptor, agonist Pro-7-NKB; pKB converted from IC50
T1 construct: expressed in transfected cells
T1 sequence (P29371 1-465): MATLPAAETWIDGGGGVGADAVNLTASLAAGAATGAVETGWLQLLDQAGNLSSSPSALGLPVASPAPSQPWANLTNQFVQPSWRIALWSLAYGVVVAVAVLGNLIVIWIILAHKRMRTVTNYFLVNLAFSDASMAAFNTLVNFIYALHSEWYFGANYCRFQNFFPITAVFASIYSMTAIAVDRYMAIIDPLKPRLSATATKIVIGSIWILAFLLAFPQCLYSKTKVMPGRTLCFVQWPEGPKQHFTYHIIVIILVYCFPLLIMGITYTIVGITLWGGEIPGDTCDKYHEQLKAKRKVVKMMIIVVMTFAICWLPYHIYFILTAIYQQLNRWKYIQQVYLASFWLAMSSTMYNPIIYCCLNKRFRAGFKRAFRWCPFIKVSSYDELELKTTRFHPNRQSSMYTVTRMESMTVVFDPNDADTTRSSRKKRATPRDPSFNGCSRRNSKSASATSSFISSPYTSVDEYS
Protocol: (§1) Chinese Hamster Ovary (CHO) K1 cells (obtained from ATCC) were stably transfected with the human NK2 receptor (hNK2R cDNA in pRc/CMV, Invitrogen) or the human NK3 receptor (hNK3R in pcDNA 3.1/Hygro (+)/IRES/CD8, Invitrogen vector modified at AstraZeneca EST-Bio UK, Alderley Park). The cells were transfected with the cationic lipid reagent LIPOFECTAMINE™ (Invitrogen) and selection was performed with Geneticin (G418, Invitrogen) at 1 mg/ml for the hNK2R transfected cells and with Hygromycin (Invitrogen) at 500 μg/ml for the hNK3R transfected cells. Single cell clones were collected by aid of Fluorescence Activated Cell Sorter (FACS), tested for functionality in a FLIPR assay (see below), expanded in culture and cryopreserved for future use. […]
(§2) The activity of a compound of the invention to inhibit NK1/NK2/NK3 receptor activation measured as NK1/NK2/NK3 receptor mediated increase in intracellular Ca^2+ was assessed by the following procedure:
(§3) CHO cells stably transfected with human NK1, NK2 or NK3 receptors were plated in black walled/clear bottomed 96-well plates (Costar 3904) at 3.5×10^4 cells per well and grown for approximately 24 h in normal growth media in a 37° C. […] The response was measured as the peak relative fluorescence after agonist addition and IC50s were calculated from ten-point concentration-response curves for each compound. […]

[1] = biological target: hERG-encoded potassium channel (Homo sapiens, UniProt Q12809); test: Activity against hERG, planar-array-based voltage clamp; type: cell-based
From the text: The activity of compounds according to formula I against the hERG-encoded potassium channel can be determined according to Kiss L, et al. Assay Drug Dev Technol. 1 (2003), 127-35: “High throughput ion-channel pharmacology: planar-array-based voltage clamp”.

human NK1 receptor = biological target: T2, human NK1 receptor (Homo sapiens, UniProt P25103); test: FLIPR assay, inhibition of human NK1 receptor activation (intracellular Ca2+); type: cell-based; conditions: CHO cells with human NK1 receptor, agonist Substance P; pKB converted from IC50
T2 construct: expressed in transfected cells; AstraZeneca R&D Wilmington), pRcCMV vector
Protocol: as §1, §2, §3

[2] = Metabolic stability in liver microsomes (intrinsic clearance); type: in vitro ADME; conditions: human, pH 7.4, HLM
Protocol: The rate of biotransformation can be measured as either metabolite(s) formation or the rate of disappearance of the parent compound. The experimental design involves incubation of low concentrations of substrate (usually 1.0 μM) with liver microsomes (usually 0.5 mg/ml) and taking out aliquotes at varying time points (usually 0, 5, 10, 15, 20, 30, 40 min.). The test compound is usually dissolved in DMSO. The DMSO concentration in the incubation mixture is usually 0.1% or less since more solvent can drastically reduce the activities of some CYP450s. Incubations are done in 100 mM potassium phosphate buffer, pH 7.4 and at 37° C. Acetonitrile or methanol is used to stop the reaction. The parent compound is analysed by HPLC-MS. From the calculated half-life, t1/2, the intrinsic clearance, Clint, is estimated by taking microsomal protein concentration and liver weight into account.

human NK2 receptor = biological target: T3, human NK2 receptor (Homo sapiens, UniProt P21452); test: FLIPR assay, inhibition of human NK2 receptor activation (intracellular Ca2+); type: cell-based; conditions: CHO cells with human NK2 receptor, agonist NKA; pKB converted from IC50
T3 construct: expressed in transfected cells
T3 sequence (P21452 1-398): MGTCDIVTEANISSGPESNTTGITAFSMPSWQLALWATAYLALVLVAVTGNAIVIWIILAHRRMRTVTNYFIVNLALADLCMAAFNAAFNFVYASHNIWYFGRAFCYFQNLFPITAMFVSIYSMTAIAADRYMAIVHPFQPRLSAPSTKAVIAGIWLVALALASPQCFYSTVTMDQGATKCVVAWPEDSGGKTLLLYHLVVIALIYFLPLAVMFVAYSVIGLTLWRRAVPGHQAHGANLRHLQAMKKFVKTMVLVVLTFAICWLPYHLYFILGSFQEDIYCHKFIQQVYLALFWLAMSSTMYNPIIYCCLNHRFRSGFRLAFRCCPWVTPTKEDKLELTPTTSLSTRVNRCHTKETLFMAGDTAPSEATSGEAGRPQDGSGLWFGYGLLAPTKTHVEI
Protocol: as §1, §2, §3

Sequence of hERG-encoded potassium channel (Q12809 whole entry): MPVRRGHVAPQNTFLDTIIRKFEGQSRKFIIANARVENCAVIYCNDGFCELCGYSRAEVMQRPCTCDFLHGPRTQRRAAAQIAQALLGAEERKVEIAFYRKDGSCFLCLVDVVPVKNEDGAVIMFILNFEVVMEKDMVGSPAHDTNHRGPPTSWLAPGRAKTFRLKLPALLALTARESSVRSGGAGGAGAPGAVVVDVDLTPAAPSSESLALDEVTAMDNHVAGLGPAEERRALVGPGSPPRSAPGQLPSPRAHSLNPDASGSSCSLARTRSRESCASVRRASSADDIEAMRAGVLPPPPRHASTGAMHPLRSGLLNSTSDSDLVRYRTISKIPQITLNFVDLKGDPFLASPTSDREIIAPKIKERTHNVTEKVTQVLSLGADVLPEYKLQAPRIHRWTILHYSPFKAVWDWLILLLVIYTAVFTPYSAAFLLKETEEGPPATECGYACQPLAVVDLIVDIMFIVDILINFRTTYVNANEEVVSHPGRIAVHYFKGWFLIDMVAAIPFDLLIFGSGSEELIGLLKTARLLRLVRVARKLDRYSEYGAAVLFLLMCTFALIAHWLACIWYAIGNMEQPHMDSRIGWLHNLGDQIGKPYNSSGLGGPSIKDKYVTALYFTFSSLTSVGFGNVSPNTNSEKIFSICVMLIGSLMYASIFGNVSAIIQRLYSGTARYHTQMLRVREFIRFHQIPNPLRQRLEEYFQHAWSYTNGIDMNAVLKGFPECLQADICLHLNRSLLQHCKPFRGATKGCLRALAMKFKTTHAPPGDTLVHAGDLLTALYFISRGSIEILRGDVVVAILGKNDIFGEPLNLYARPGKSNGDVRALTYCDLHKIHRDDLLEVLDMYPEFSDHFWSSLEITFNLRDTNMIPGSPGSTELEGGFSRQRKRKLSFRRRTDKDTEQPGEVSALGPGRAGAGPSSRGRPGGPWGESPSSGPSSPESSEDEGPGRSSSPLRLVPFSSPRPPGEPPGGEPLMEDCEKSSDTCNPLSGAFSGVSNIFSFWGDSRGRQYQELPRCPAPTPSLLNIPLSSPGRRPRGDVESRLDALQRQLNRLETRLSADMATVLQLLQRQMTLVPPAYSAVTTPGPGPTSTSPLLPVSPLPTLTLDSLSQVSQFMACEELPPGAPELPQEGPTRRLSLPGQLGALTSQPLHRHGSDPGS
T2 sequence (P25103 whole entry): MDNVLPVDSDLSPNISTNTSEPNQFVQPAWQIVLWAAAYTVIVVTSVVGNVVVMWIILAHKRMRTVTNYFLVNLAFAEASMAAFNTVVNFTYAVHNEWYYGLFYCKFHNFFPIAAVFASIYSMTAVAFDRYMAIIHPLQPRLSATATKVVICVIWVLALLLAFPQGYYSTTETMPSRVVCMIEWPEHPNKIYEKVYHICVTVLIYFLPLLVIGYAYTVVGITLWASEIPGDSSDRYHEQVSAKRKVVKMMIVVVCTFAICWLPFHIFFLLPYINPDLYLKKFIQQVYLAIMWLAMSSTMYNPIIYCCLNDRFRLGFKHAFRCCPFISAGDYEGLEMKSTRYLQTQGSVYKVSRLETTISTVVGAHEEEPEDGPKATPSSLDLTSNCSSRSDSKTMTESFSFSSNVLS
Sequence of CYP3A4 (P08684 whole entry): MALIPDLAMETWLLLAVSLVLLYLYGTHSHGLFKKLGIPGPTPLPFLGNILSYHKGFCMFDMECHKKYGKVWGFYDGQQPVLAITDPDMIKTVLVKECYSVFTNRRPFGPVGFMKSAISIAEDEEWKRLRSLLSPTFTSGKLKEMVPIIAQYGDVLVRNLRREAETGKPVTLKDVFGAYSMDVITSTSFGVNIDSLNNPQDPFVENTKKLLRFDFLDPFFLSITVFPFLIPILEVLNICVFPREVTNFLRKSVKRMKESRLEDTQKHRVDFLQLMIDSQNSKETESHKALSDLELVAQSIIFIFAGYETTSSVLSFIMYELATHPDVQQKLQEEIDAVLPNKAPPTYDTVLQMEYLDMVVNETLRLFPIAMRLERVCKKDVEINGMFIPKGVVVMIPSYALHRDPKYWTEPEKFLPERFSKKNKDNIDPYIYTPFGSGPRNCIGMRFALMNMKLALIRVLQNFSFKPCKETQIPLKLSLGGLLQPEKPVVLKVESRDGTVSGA

IC50 (CYP3A4): 18300 nM
Kb (human NK3 receptor): 63.1 nM
Kb (human NK1 receptor): 10 nM
microsomal CLint at 1 μM [2]: 36 µL/min/mg
Kb (human NK2 receptor): 31.6 nM
Structure (SMILES): CC(C)C(=O)N1CCN(C2CN(CC[C@H](CN(C)C(=O)c3cc(Cl)cc(C(F)(F)F)c3)c3ccc(F)cc3)C2)CC1 [Ex 2, 3-Chloro-N-{(2S)-2-(4-fluorophenyl)-4-[3-(4-isobutyrylpiperazin-1-yl)azetidin-1-yl]butyl}-N-methyl-5-(trifluoromethyl)benzamide]
IC50 [1]: 6600 nM

Reference: patent US20070270400A1, “New compounds 303” (priority 2006, published 2007)
